Laboratory results taken from patent publication US20190343908A1, “Therapeutic Combination for the Treatment of Cancer” (Nerium Biotechnology Inc., priority 2011, published 2019).

Experiments:
[1] = system: A375 melanoma cancer cell line; experiment: Crystal Violet viability assay, A375; type: cell-based, human; details: for ABSORBANCE: 0.1 μg/mL cisplatin; for Average absorbance, CVE 24 h / Average absorbance, CVE 48 h / Average absorbance, CVE 72 h: A375 Run 1
Text: Three different viability assays were chosen to complement each other and yielded results dependent on concentration and cell line: the Methyl Tetrazolium dye assay, the Sulforhodamine B fluorescent dye assay, and the Crystal Violet dye assay.
The Sulforhodamine B and Crystal Violet assays provide information about protein and were used to complement the Methyl-Tetrazolium dye assay. […] It is used for the quantification of cellular proteins of cultured cells. The assay using Crystal Violet, a dye that binds electrostatically to proteins and stains DNA, provides a reliable, simple assay for measuring viability of cells.
(§1) The Methyl Tetrazolium, Sulforhodamine B, and Crystal Violet assays were used to assess cell viabilities. The incubation times were 24 hours, 48 hours, and 72 hours. The Nerium oleander extract Anvirzel™ (a hot water extract of oleander obtained from Salud Integral, Honduras) was tested in concentrations ranging from 0.01 ng/mL to 10 ng/mL.
(§2) Cells were detached by trypsinization (Trypsin-0.25% EDTA, Invitrogen, 25200-072) during the logarithmic phase of culture growth and plated in 96-well plates (18.000 cells/well) (Corning, Costar 359) in a final volume of 200 μl of medium per well. […] The absorbance was measured after 24 hours, 48 hours, and 72 hours of incubation.
For the Crystal Violet assay, the medium was removed from the 96-well plates, the plates rinsed with PBS (Sigma, P3813) and then the cells were […] by the addition of 10% formalin (MERCK, 1.04003.2500) for 20 minutes at RT. Formalin was removed and 0.25% aqueous crystal violet (Sigma, HT901), dissolved in water, was added for 10 minutes at RT. Unbound Crystal Violet was rinsed by washing with water and finally 33% acetic acid was added to dissolve the dye.
(§3) The optical density of each plate was measured on a μQuant spectrophotometer and the data were analyzed with Gen5 software (μQuant Biomolecular Spectrophotometer MQX200 and Gen5™ Microplate Data Collection & Analysis software, BioTek® Instruments. Inc, April 2008). Absorbance was measured at 570 nm for all assays and a second wavelength was measured in order to subtract noise. For the Methyl-Tetrazolium assay this second wavelength was 630 nm and for the Sulforhodamine B and Crystal Violet assays it was 690 nm.

[2] = system: LNCaP prostate cancer cell line; experiment: Methyl-Tetrazolium viability assay, LNCaP; type: cell-based, human; details: for ABSORBANCE: LNCaP, 0.1 μg/mL cisplatin
Text: The Methyl-Tetrazolium dye assay measures the activity of enzymes in mitochondria. The dye precursor is taken up by cells, where it undergoes reduction to the purple formazan. It measures only the mitochondrial activity and, thus, it is not always a reliable indication of whether the cells themselves are alive or dead, since even a recently dead cell has […] enzyme activity in mitochondria. Intracellular glucose concentration, pH, and time before assay all affect the measurements.
as §1, §2
For the Methyl-Tetrazolium assay, the dye (Sigma, M2128; 5 mg/mL, diluted in phosphate-buffered saline) was added to each well and plates were incubated for 3 hours at 37° C. After the end of the incubation period, the medium was discarded and the cells were rinsed with phosphate-buffered saline. Finally, the formazan crystals were dissolved in dimethylsulphoxide (Sigma, D4540).
as §3

## N.N.[Cl][Pt][Cl] [cisplatin]
[1]; A375, 48 h
  ABSORBANCE: 1.304
[1]; A375, 72 h
  ABSORBANCE: 0.663
[1]; 0.1 μg/ml CDDP
  Average absorbance, CVE 24 h: 0.607
  Average absorbance, CVE 48 h: 1.304
  Average absorbance, CVE 72 h: 0.663
[1]; 1 μg/ml CDDP
  Average absorbance, CVE 24 h: 0.277
  Average absorbance, CVE 48 h: 0.396
  Average absorbance, CVE 72 h: 0.178
[1]; 10 μg/ml CDDP
  Average absorbance, CVE 24 h: 0.32
  Average absorbance, CVE 48 h: 0.405
  Average absorbance, CVE 72 h: 0.282
[1]; 100 μg/ml CDDP
  Average absorbance, CVE 24 h: 0.329
  Average absorbance, CVE 48 h: 0.288
  Average absorbance, CVE 72 h: 0.311
[1]; A375 Run 2, 24 h, 0.1 μg/ml CDDP
  Average absorbance CVE: 0.603
[1]; A375 Run 2, 24 h, 1 μg/ml CDDP
  Average absorbance CVE: 0.197
[1]; A375 Run 2, 24 h, 10 μg/ml CDDP
  Average absorbance CVE: 0.246
[1]; A375 Run 2, 24 h, 100 μg/ml CDDP
  Average absorbance CVE: 0.241
[1]; A375 Run 2, 48 h, 0.1 μg/ml CDDP
  Average absorbance CVE: 1.204
[1]; A375 Run 2, 48 h, 1 μg/ml CDDP
  Average absorbance CVE: 0.605
[1]; A375 Run 2, 48 h, 10 μg/ml CDDP
  Average absorbance CVE: 0.514
[1]; A375 Run 2, 48 h, 100 μg/ml CDDP
  Average absorbance CVE: 0.238
[1]; A375 Run 2, 72 h, 0.1 μg/ml CDDP
  Average absorbance CVE: 1.312
[1]; A375 Run 2, 72 h, 1 μg/ml CDDP
  Average absorbance CVE: 1.001
[1]; A375 Run 2, 72 h, 10 μg/ml CDDP
  Average absorbance CVE: 0.729
[1]; A375 Run 2, 72 h, 100 μg/ml CDDP
  Average absorbance CVE: 0.293
[1]; A375 Run 3, 24 h, 0.1 μg/ml CDDP
  Average absorbance CVE: 0.856
[1]; A375 Run 3, 24 h, 1 μg/ml CDDP
  Average absorbance CVE: 0.655
[1]; A375 Run 3, 24 h, 10 μg/ml CDDP
  Average absorbance CVE: 0.529
[1]; A375 Run 3, 24 h, 100 μg/ml CDDP
  Average absorbance CVE: 0.224
[1]; A375 Run 3, 48 h, 0.1 μg/ml CDDP
  Average absorbance CVE: 0.92
[1]; A375 Run 3, 48 h, 1 μg/ml CDDP
  Average absorbance CVE: 0.375
[1]; A375 Run 3, 48 h, 10 μg/ml CDDP
  Average absorbance CVE: 0.309
[1]; A375 Run 3, 48 h, 100 μg/ml CDDP
  Average absorbance CVE: 0.252
[1]; A375 Run 3, 72 h, 0.1 μg/ml CDDP
  Average absorbance CVE: 0.961
[1]; A375 Run 3, 72 h, 1 μg/ml CDDP
  Average absorbance CVE: 0.388
[1]; A375 Run 3, 72 h, 10 μg/ml CDDP
  Average absorbance CVE: 0.344
[1]; A375 Run 3, 72 h, 100 μg/ml CDDP
  Average absorbance CVE: 0.24
[2]; LNCaP Run 3, 24 h, 0.1 μg/ml CDDP
  MTT Average: 0.11
[2]; LNCaP Run 3, 24 h, 1 μg/ml CDDP
  MTT Average: 0.008
[2]; LNCaP Run 3, 24 h, 10 μg/ml CDDP
  MTT Average: 0.017
[2]; LNCaP Run 3, 24 h, 100 μg/ml CDDP
  MTT Average: 0.006
[2]; LNCaP Run 3, 48 h, 0.1 μg/ml CDDP
  MTT Average: 0.157
[2]; LNCaP Run 3, 48 h, 1 μg/ml CDDP
  MTT Average: 0.011
[2]; LNCaP Run 3, 48 h, 10 μg/ml CDDP
  MTT Average: 0.009
[2]; LNCaP Run 3, 48 h, 100 μg/ml CDDP
  MTT Average: 0.009
[2]; LNCaP Run 3, 72 h, 0.1 μg/ml CDDP
  MTT Average: 0.171
[2]; LNCaP Run 3, 72 h, 1 μg/ml CDDP
  MTT Average: 0.01
[2]; LNCaP Run 3, 72 h, 10 μg/ml CDDP
  MTT Average: 0.009
[2]; LNCaP Run 3, 72 h, 100 μg/ml CDDP
  MTT Average: 0.008
[2]; 48 h
  ABSORBANCE: 0.161
[2]; 72 h
  ABSORBANCE: 0.17
[2]; Run 1, 0.1 μg/ml CDDP
  Average MTT 24 h: 0.061
  Average MTT 48 h: 0.116
[2]; Run 1, 1 μg/ml CDDP
  Average MTT 24 h: 0.012
  Average MTT 48 h: 0.015
  Average MTT 72 h: 0.016
[2]; Run 1, 10 μg/ml CDDP
  Average MTT 24 h: 0.02
  Average MTT 48 h: 0.011
  Average MTT 72 h: 0.01
[2]; Run 1, 100 μg/ml CDDP
  Average MTT 24 h: 0.011
  Average MTT 48 h: 0.017
  Average MTT 72 h: 0.01
[2]; Run 2, 0.1 μg/ml CDDP
  Average MTT 24 h: 0.136
  Average MTT 48 h: 0.161
  Average MTT 72 h: 0.17
[2]; Run 2, 1 μg/ml CDDP
  Average MTT 24 h: 0.01
  Average MTT 48 h: 0.016
  Average MTT 72 h: 0.026
[2]; Run 2, 10 μg/ml CDDP
  Average MTT 24 h: 0.014
  Average MTT 48 h: 0.015
  Average MTT 72 h: 0.012
[2]; Run 2, 100 μg/ml CDDP
  Average MTT 24 h: 0.017
  Average MTT 48 h: 0.015
  Average MTT 72 h: 0.012
